Experimental data: patent US20040152759A1, “Combination administration of an indolinone with a chemotherapeutic agent for cell proliferation disorders” (priority 2002, published 2004)
Several values for one entry are separate records, joined by “and”; a condition that tells them apart may be missing. Equal values may be shown once. Where a name gives a salt, the structure may show the parent alone. Read-outs that look alike come from different tables or passages of the source.

Columns and labels:
[1] = tested on: LS174t human colon carcinoma; type: in vivo; details: Day 23
Description: Methods for LS174t Human Colon Cancer Model
(§1) 1×10^5 to 1×10^6 tumor cells were injected into the subcutaneous region of the hind flank of female nu/nu mice (n=10). Tumor growth was monitored twice a week for 2-4 weeks by caliper measurement.
(§2) Tumors were grown to a volume of approximately 100 mm^3 prior to dosing.

NCI-H526 SCLC cells = experiment: NCI-H526 small cell lung carcinoma subcutaneous xenograft model; type: in vivo, human (xenograft in athymic nu/nu mice); details: dosing began day 18 after implantation
Description: Methods for NCI-H526-Human Small Cell Lung Carcinoma Model
1×10^5 to 1×10^6 tumor cells were injected into the subcutaneous region of the hind flank of female nu/nu mice (n=10). Tumor growth was monitored twice a week for 2-4 weeks by caliper measurements.
NCI-H526 SCLC cells were cultured using standard technique in RPMI 1640 supplemented with 10% fetal bovine serum, 2 mM glutamine, 1 mM sodium pyruvate (Life Technologies Inc., Gaithersburg, Md.), and maintained routinely in a humidified chamber at 37° C. and 5% carbon dioxide.
Cells to be implanted in mice were harvested from cell culture flasks during exponential growth, washed once with sterile phosphate-buffered saline (PBS), counted, and resuspended in PBS to a suitable concentration prior to implantation.
Nine to twelve week old female athymic nu/nu mice purchased from Charles River Laboratories (Wilmington, Mass.) were used.
Mice received subcutaneous injections into the hind flank on Day 0 with 5×10^6 NCI-H526 cells. Subcutaneous tumor-bearing athymic mice (250-300 mm^3 tumor volume) were treated either PO once daily with Compound 1 to the end of the study, intraperitoneally once daily with Cisplatin for the first 5 days, or a combination of the two. […] Tumor growth was measured twice weekly using Vernier calipers for the duration of the treatment. Tumor volumes were calculated as the product of length× width× height.

[2] = tested on: MX-1 human breast carcinoma; type: in vivo
Text: Methods for MX1 Human Breast Cancer Model
Mice/Husbandry: Female nu/nu mice (Harlan), 13 weeks of age (at pair-match; Day 1), were fed ad libitum water and an irradiated standard rodent diet. Mice were housed in static microisolators on a 12-hour light cycle. The animal care and use program specifically complies with recommendations of the Guide for Care and Use of Laboratory Animals with respect to restraint, husbandry, surgical procedures, feed and fluid regulation, and veterinary care is AAALAC accredited.
Tumor Implantation: Mice were implanted subcutaneously with 1 mm^3 MX-1 human breast carcinoma fragments in the flank. Tumors were monitored initially twice weekly, and then daily as the neoplasms reached the desired size, approximately 100 mg. […] Estimated tumor weight was calculated using the formula:
Tumor Weight(mg)=w^2×L divided by 2
where w=width and L=length in mm of a MX-1 carcinoma.
as §2
This example evaluates the effects of combined treatment of Compound 1 and Docetaxel on efficacy and toxicity in a human breast cancer model. Tumors were grown to a volume of approximately 100 mm^3 prior to dosing.
This example evaluates the effects of combined treatment of Compound 1 and 5-FU on efficacy and toxicity in a human breast cancer model
as §2
This example evaluates the effects of combined treatment of Compound 1 and Doxorubicin Hydrochloride on efficacy and toxicity in a human breast cancer model.
Tumors were grown to a volume of approximately 100 mm^3 prior to dosing. […] (see FIG. 6).

MDA-MB-435 tumor cells = experiment: MDA-MB-435 orthotopic human breast carcinoma bone marrow colonization model (survival); type: in vivo, human (xenograft in nu/nu mice); details: vehicle 46 days
Description: Methods for the MDA-MB-435 Human Breast Cancer Model
1×10^5 MDA-MB-435 tumor cells were injected into the left cardiac ventricle of female nu/nu mice (n=10). Mice were monitored for weight loss (>20%) and hind limb paralysis as an indicator of bone marrow colonization.
This example evaluates the effects of combined treatment of Compound 1 and Docetaxel on efficacy and toxicity in a human breast cancer model. Efficacy is indicated by improved survival, which, in turn, is indicated by hind-limb paralysis or weight loss (>20%) due to bone marrow colonization of tumor cells.
Tumor cells were injected into the mammary fat pad of female nu/nu mice and mice were monitored for weight loss (>20%) and hind limb paralysis as an indicator of bone marrow colonization of tumor cells.
Tumor cells were injected into the left cardiac ventricle of female nu/nu mice and mice were monitored for weight loss (>20%) and hind limb paralysis as an indicator of bone marrow colonization

[3] = tested on: HT-29 human colon carcinoma; type: in vivo; details: Compound 1 20 mg/kg PO QD to end, monotherapy, Day 38
Description: Methods for HT-29 Human Colon Cancer Model
as §1, §2

SMILES: CCc1c2c(nc3ccc(OC(=O)N4CCC(N5CCCCC5)CC4)cc13)-c1cc3c(c(=O)n1C2)COC(=O)[C@]3(O)CC [CPT-11, Irinotecan, reference compound]
- % Inhibition ([1]; CPT-11 100 mg/kg IP QWK x 3, monotherapy, 100 mg/kg): 64% and 63.6%

SMILES: N.N.[Cl][Pt][Cl] [Cisplatin, reference compound]
- Day tumor reached 900 mm^3 (NCI-H526 SCLC cells; Cisplatin 1.5 mg/kg IP QD x 5, monotherapy): 48 days

SMILES: CCN(CC)CCNC(=O)c1c(C)[nH]c(/C=C2\C(=O)Nc3ccc(F)cc32)c1C [Compound 1, 5-(5-Fluoro-2-oxo-1,2-dihydroindol-3-ylidenemethyl)-2,4-dimethyl-1H-pyrrole-3-carboxylic acid(2-diethylamino-ethyl)amide]
- % Inhibition ([2]; Biological Example 1, Compound 1 40 mg/kg PO QD to end, monotherapy, Day 20, 40 mg/kg): 52% and 53%
- % Inhibition ([2]; Biological Example 2, Compound 1 40 mg/kg PO QD to end, monotherapy, Day 17): 63%
- % Inhibition ([2]; Biological Example 3, Compound 1 40 mg/kg PO QD to end, monotherapy, Day 15): 57%
- % Inhibition ([2]; Biological Example 4, Compound 1 40 mg/kg PO QD to end, monotherapy, Day 14): 62%
- Day tumor reached 900 mm^3 (NCI-H526 SCLC cells; Compound 1 40 mg/kg PO QD, monotherapy): 41 days
- Median Survival (MDA-MB-435 tumor cells; Compound 1 40 mg/kg PO QD to end, monotherapy): 52 days
- % Inhibition ([1]; Compound 1 40 mg/kg PO QD to end, monotherapy, 40 mg/kg): 68% and 67.9%
- % Inhibition [3]: 78% and 77.8%

SMILES: O=c1[nH]cc(F)c(=O)[nH]1 [Compound 5-FU, 5-Fluorouracil]
- % Inhibition ([2]; Biological Example 3, 5-FU 100 mg/kg IV QWK x 3, monotherapy, Day 15): 45%

SMILES: CC(=O)O[C@@]12CO[C@@H]1C[C@H](O)[C@@]1(C)C(=O)[C@H](O)C3=C(C)[C@@H](OC(=O)[C@H](O)[C@@H](NC(=O)OC(C)(C)C)c4ccccc4)C[C@@](O)([C@@H](OC(=O)c4ccccc4)[C@H]21)C3(C)C [Docetaxel]
- % Inhibition ([2]; Biological Example 1, Docetaxel 10 mg/kg IV QWK x 3, monotherapy, Day 16): 60%
- % Inhibition ([2]; Biological Example 1, Docetaxel 15 mg/kg IV QWK x 3, monotherapy, Day 16): 95%
- % Inhibition ([2]; Biological Example 2, Docetaxel 10 mg/kg IV QWK x 3, monotherapy, Day 14): 36%
- % Inhibition ([2]; Biological Example 2, Docetaxel 15 mg/kg IV QWK x 3, monotherapy, Day 17): 90%
- Median Survival (MDA-MB-435 tumor cells; Docetaxel 5 mg/kg IP QWK x 3, monotherapy): 52 days

SMILES: COc1cccc2c1C(=O)c1c(O)c3c(c(O)c1C2=O)C[C@@](O)(C(=O)CO)C[C@@H]3O[C@H]1C[C@H](N)[C@H](O)[C@H](C)O1 [Doxorubicin Hydrochloride]
- % Inhibition ([2]; Biological Example 4, Doxorubicin Hydrochloride 4 mg/kg IV QOD x 3, monotherapy, Day 14): 48%
